Data taken from US9234176B2, “Chemically defined production of cardiomyocytes from pluripotent stem cells” (The Board of Trustees of the Leland Stanford Junior …, priority 2012, dated 2016).

How the values were obtained:
hiPSC [1] = test: Defined matrices: pluripotent growth and cardiac differentiation of hiPSC; format: cell-based, human
Source text: Determination that Laminin-Based Matrices are Most Suitable for Cardiac Differentiation. […] This lack of long-term adhesion during the differentiation was present irrelevant of vitronectin peptide concentrations and could be resolved by passaging and replating onto new matrix, yet we sought to find a more suitable solution. We assessed culture of hiPSC in E8 medium and subsequent differentiation on other defined matrices: recombinant human (rH) Ecadherin, rH vitronectin, rH laminin-521, truncated rH laminin-511, human fibronectin, or a fibronectin mimetic (FIG. 2a). Chemically defined long-term maintenance of pluripotency in E8 was successful on all surfaces except those based on fibronectin. […] Cells cultured on each of the five successful matrices (>6 passages) were then differentiated in CDM3. Although all matrices produced efficient differentiations (FIG. 2b), the laminin matrices were both successful for maintaining long-term adhesion during chemically defined cardiac differentiation (FIG. 2d), but prohibitively expensive for large-scale application. […]
Growth assays. To assess cell growth, cells were counted using a Countess automated cell counter (Life Technologies). […] Cumulative population doublings was calculated using the formula n=3.32 [log10(N/N0)].
Matrices. […] Matrices were assessed on both 6-well polystyrene tissue culture plates and untreated plates (both from Greiner). […]

hiPSCs = test: Cardiac differentiation of hiPSCs in CDM3, optimisation of media and small molecules (TNNT2 flow cytometry); format: cell-based; settings: for timing of Wnt signaling modulation for cardiac differentiation efficiency: CHIR99021 for 2 days followed by Wnt-C59 for 2 days, in CDM3; for cell death / toxicity of GSK3B inhibitors: in CDM3, FIG. 10g; for inducing cardiac differentiation (GSK3B inhibitors): in CDM3, FIG. 10g-h
Description: Cardiac differentiation of hiPSCs. hiPSCs and hESCs (>p20) were split at 1:10 or 1:12 ratios using EDTA as above and grown for 4 days at which time they reached ˜85% confluence. Media was changed to CDM3, consisting of RPMI 1640 (11875, Life Technologies), 495 μg/mL Oryza sativa-derived recombinant human albumin (A0237, Sigma-Aldrich, 75 mg/mL stock solution in dH2O, stored at −20° C.), 213 μg/mL L-ascorbic acid 2-phosphate (Sigma-Aldrich, 64 mg/mL stock solution in dH2O, stored at −20° C.). Media was changed every other day (48 h). For d0-d2, media was supplemented with 6 μM CHIR99021 (LC Laboratories, Woburn, Mass., USA). On d2, media was change to CDM3 supplemented with […] Wnt-C59 (Cellagentech, San Diego, Calif., USA). Media was changed on d4 and every other day for CDM3.
Wnt inhibitors assessed were IWP-2, IWR-1 (Sigma-Aldrich), XAV-939, ICG-001 (Selleck Chemicals), IWP-4 (Stemgent, Cambridge, Mass., USA), and Wnt-C59 (Cellagentech). GSK3B inhibitors assessed were CHIR99021 (LC Laboratories), BIO, TWS119 (Selleck Chemicals), 1-azenkenpaullone, TDZD-8, ARA014418, and 3F8 (all Sigma-Aldrich). Inhibitors used for pathway analysis were PD173074, SB203580, LDN193189, SB431542 (all Selleck Chemicals), SU5402, Dorsomorphin, A83-01 (Tocris, Bristol, UK), ALK5 inhibitor (Stemgent), and ITD-1 (Xcessbio, San Diego, Calif., USA). All small molecules were re-suspended to 10 mM in dimethyl sulfoxide (DMSO).
Flow cytometry. For optimization of cardiac differentiation conditions, cells were cultured in 12-well plates. For analysis of cardiomyocyte differentiation efficacy and subtype specification, expression of TNNT2, MLC2A and MLC2V was analyzed by flow cytometry. At d14-15 of differentiation, the entire well was dissociated with TrypLE Express for 10 min at 37° C. and transferred to flow cytometry tubes (BD Biosciences). Cells were then fixed with 1% PFA for 15 min, permeabilized with 90% methanol for 15 min and stained using 1:200 mouse monoclonal IgG1 TNNT2 (13-11, Thermo Scientific), 1:400 mouse monoclonal IgG2b MLC2A (MYL7, Synaptic Systems) and 1:200 rabbit polyclonal IgG MLC2V (MYL2, ProteinTech) for 45 min at RT. Secondary staining was performed with 1:1000 Alexa Fluor 488 goat anti-mouse IgG1, 1:1000 Alexa Fluor 488 goat anti-rabbit IgG (H+L), 1:1000 Alexa Fluor 647 goat anti-mouse IgG2b and 1:1000 Alexa Fluor 647 goat anti-rabbit IgG (H+L) secondary antibodies for 20 min. […] Cells were analyzed using a FACSAria II (BD Biosciences) with a […] and FACSDiva software. Data were analyzed using FlowJo 8.7 (Tree Star).

hPSC = test: Directed cardiac differentiation of hPSC in minimal media (Example 1); format: cell-based, human; settings: for inducing cardiac differentiation (GSK-3β inhibitors, Wnt signaling agonists): BIO 2-5 μM, CHIR-99021 4-10 μM; for Wnt signaling antagonist effective for cardiac differentiation: at a concentration of 5 μM
Description: Directed Cardiac Differentiation Procedure. (volumes provided are for a T25 flask; adjust volumes proportionately for larger vessels) Day 0 (day 4 after passage): Aspirate medium, and replace with 5 mL of minimal media (CDM3, D3, D4, or D11) supplemented with 6 uM of CHIR-99021 (CHIR-99021 can be used at 4-15 μM). Place flasks in a regular ambient O2, 5% CO2 incubator. Day 2: 48 h. Aspirate media and replace with 5 mL of minimal media (CDM3, D3, D4, or D11). Day 3: 72 h. Aspirate media and replace with 5 mL of minimal media (CDM3, D3, D4, or D11) supplemented with 0.5 uM C59 (C59 may be used at 0.5-5 μM). Day 5: Aspirate media and replace with 5 mL of minimal media (CDM3, D3, D4, or D11). From day 5 onwards media should be changed every 2 days with minimal media (CDM3, D3, D4, or D11).
From day 0 to day 2 (d0-d2), minimal media (CDM3, D3, D4, or D11) was supplemented with the Wnt signaling agonist CHIR-99021 (6-10 uM 48 h, d0-d2), which triggers canonical Wnt/β-Catenin signaling that leads to the subsequent up-regulation of BMP4 and activin A. Media is then exchanged to non-supplemented minimal media (CDM3, D3, D4, or D11) for 1 day followed by contact with a Wnt signaling antagonist (e.g., C59: 0.5-5 uM, 48 h, d3-d5) for 2 days. At day 5, 7, and 9 minimal media (CDM3, D3, D4, or D11) is exchanged for fresh media, and contraction begins between d7 and d10. At day 11, media is exchanged to a variant of minimal media (CDM3, D3, D4, or D11) without […] that results in the depletion of non-cardiomyocytes due to a lack of glycogen stores. Media was exchanged on day 13 for fresh media lacking glucose. At day 15, media was exchanged for fresh minimal media (CDM3, D3, D4, or D11) (containing glucose).
The presence of cardiomyocytes was verified in a number of different ways, for example: flow cytometry of cells contacted with an antibody specific for a cardiomyocyte marker (TNNT2); imaging of cells stained with antibodies specific for α-Sarcomeric actin (red) and Troponin T (TNNT2); electrophysiological profiling; and evaluating responsiveness to known cardioactive drugs (e.g., Norepinephrine). Assays performed on multiple different cell lines (including several hESC lines and over 30 hiPSC lines) confirmed that the subject methods are highly consistent and highly efficient, as very little variability was observed among the different cell lines.

hiPSC [2] = test: Analysis of components of defined media for hiPSC cardiac differentiation (contraction score); format: cell-based, human; set-up: 9 components subtracting: cardiac differentiation score / 2 components subtracting: cardiac differentiation score: scale not given here
Source text: Development of a Chemically Defined Cardiac Differentiation Platform. We first generated eleven pluripotent hiPSC lines under chemically defined conditions (FIG. 7) on a chemically synthesized vitronectin peptide substrate, with nonenzymatic passaging (FIG. 8). […] To formulate a chemically defined differentiation protocol, we concentrated on the observation that three unrelated media formations are capable of supporting growth factor-based monolayer cardiac differentiation: RPMI+B27-ins, supplemented StemPro-34, and LI-APEL (Table 5). […] Beginning with the 21 components of B27, we subtracted one component at a time and assessed for continued high efficiency differentiation (Table 6a-c) and also assessed components from two other two media (supplemented StemPro-34 and LI-APEL) that yielded benefits (Table 6d-f). We concluded that hiPSC cardiac differentiation was successful in a media consisting of […]: RPMI 1640 basal medium, L-ascorbic acid 2-phosphate (AA 2-P), and BSA (Table 6g).
Other additions to cardiac differentiation media tested were 10.7 μg/mL recombinant human transferrin, […], 1 μg/mL linoleic acid, 1 μg/mL linolenic acid, 2 ng/mL triiodo-l-thyronine, 2 μg/mL L-carnitine, 1 μg/mL D,L-alpha-tocopherol acetate, 100 ng/mL retinol acetate, 1 μg/mL ethanolamine, 20 ng/mL corticosterone, 9 ng/mL progesterone, 47 ng/mL lipoic acid, 100 ng/mL retinol, 1 μg/mL D,L-alpha-tocopherol, 100 ng/mL biotin, 2.5 ug/mL catalase, 2.5 μg/mL glutathione, 2.5 μg/mL superoxide dismutase, 2 μg/mL L-carnitine, 15 μg/mL D(+)-galactose, 16.1 μg/mL putrescine, 450 μM 1-thioglycerol, 55 μM 2-mercaptoethanol, 64 μg/mL L-ascorbic acid 2-phosphate (all from Sigma-Aldrich).

With “recombinant laminin-521: recombinant human laminin-521 matrix” the “support of pluripotent hiPSC growth and long-term adherence of CMs” value (hiPSC [1]) was “most successful”.
For `Cc1cnc(-c2cnc(NCCNc3ccc(C#N)cn3)nc2-c2ccc(Cl)cc2Cl)[nH]1` [CHIR-99021, 6-[[2-[[4-(2,4-dichlorophenyl)-5-(5-methyl-1H-imidazol-2-yl)-2-pyrimidinyl]amino]ethyl]amino]-3-pyridinecarbonitrile], the “timing of Wnt signaling modulation for cardiac differentiation efficiency” value (hiPSCs) was “optimal”, the “cell death / toxicity of GSK3B inhibitors” value (hiPSCs) was “did not cause total cell death” and the “inducing cardiac differentiation (GSK3B inhibitors)” value (hiPSCs) was “successful at inducing any suitable cardiac differentiation”. For the same molecule, the “inducing cardiac differentiation (GSK-3β inhibitors, Wnt signaling agonists)” value (hPSC) was “successful at inducing cardiac differentiation”.
`O=C1O[C@H]([C@@H](O)CO)C(O)=C1OP(=O)(O)O` [AA 2-P, L-ascorbic acid 2-phosphate] was tested, and the “effect of omitting the component from the differentiation medium” value (hiPSCs; medium without AA 2-P (FIG. 10a)) was “total cell death”, the “9 components with the addition of: cardiac differentiation score” value (hiPSC [2]; d) component at 10 x concentration) was “+++ (>75% contraction)” and the “9 components (with 4 at 10x) subtracting: cardiac differentiation score” value (hiPSC [2]; e) third medium with increased concentrations, each component subtracted) was 0. The “6 components subtracting: cardiac differentiation score” value (hiPSC [2]; f) fourth 6-component medium, each component subtracted) was 0 and the “2 components subtracting: cardiac differentiation score” value (hiPSC [2]; g) final 3-component medium (RPMI 1640, BSA, 10 x L-ascorbic acid 2-phosphate), component subtracted) was 0.
In the case of `OCC(O)CS` (stereo not drawn) [1-thioglycerol], the “effect of addition on differentiation” value (hPSC; addition d0-d2, PVA 0.4%) is reported as “severely limited rather than enhanced differentiation” and the “9 components with the addition of: cardiac differentiation score” value (hiPSC [2]; d) addition of components from the other media formulae of Table 5) is reported as 0.
For `O=C(Nc1cccc2cccnc12)c1ccc(N2C(=O)C3C4C=CC(C4)C3C2=O)cc1` (stereo not drawn) [IWR-1, 4-(1,3,3a,4,7,7a-Hexahydro-1,3-dioxo-4,7-methano-2H-isoindol-2-yl)-N-8-quinolinyl-Benzamide], the “Wnt signaling antagonist effective for cardiac differentiation” value (hPSC) was “effective”.
With `Cc1cc(-c2ccc(CC(=O)Nc3ccc(-c4cccnc4)cc3)cc2)ccn1` [C59] the “timing of Wnt signaling modulation for cardiac differentiation efficiency” value (hiPSCs) was “optimal” and the “Wnt signaling antagonist effective for cardiac differentiation” value (hPSC) was “effective”.
`O=C1Nc2cc(Br)ccc2/C1=C1/Nc2ccccc2/C1=N\O` [BIO, 6-bromo-3-[(3E)-1,3-dihydro-3-(hydroxyimino)-2H-indol-2-ylidene]-1,3-dihydro-(3Z)-2H-indol-2-one] was tested, and the “cell death / toxicity of GSK3B inhibitors” value (hiPSCs) was “did not cause total cell death”, the “inducing cardiac differentiation (GSK3B inhibitors)” value (hiPSCs) was “successful at inducing any suitable cardiac differentiation” and the “inducing cardiac differentiation (GSK-3β inhibitors, Wnt signaling agonists)” value (hPSC) was “successful at inducing cardiac differentiation”.
